Experiment [1] relates to alcohol preferring Syrian golden hamsters. As to the kind of experiment: Ethanol intake suppression (antidipsotropic activity) in alcohol preferring Syrian golden hamsters. Conditions: for ethanol intake suppression: equivalent doses (0.07 meq/hamster/day), FIG. 1; for ETOH Intake Suppression, %: ethanol-preferring golden hamsters, equivalent doses, i.p.; for suppression of hamster ethanol intake: i.p. dose or equivalent doses.

Experiment [2] deals with hamster liver mitochondria (MAO/ALDH pathway, 5-HT as substrate). The experiment is described as follows: Mitochondria-catalyzed 5-HT metabolism (5-HIAL, 5-HIAA, 5-HT depletion), hamster liver mitochondria. Format: biochemical. Conditions: for inhibition of 5-HIAA formation: isolated hamster liver mitochondria. From the text:
(§1) Hamster liver mitochondrial preparations were obtained by the well-known method of Johnson & Lardy (see John, D. & Lardy, H. (1967) Meth. Enzymol. 10, 94). The integrity of these mitochondrial preparations, evaluated by measuring their latent glutamate dehydrogenase activity according to the methods of Beaufay, H., and Bendall, D. S., Baudhuin, P. & deDuve, C. (1959) J. Cell Biol. 73, 623-628 before and after the metabolic study, were over 97% and 93%, respectively.
Reactions were initiated by the addition of mitochondria and allowed to proceed in a 37° C. shaking water bath for 30 min. Reactions were terminated by the addition of 0.05 ml each of ice-cold 1 M HClO4 and 10 mM EDTA. The samples were kept on ice for 1 hour followed by centrifugation (12,000 rpm) in a microcentrifuge (Microspin 24S, Sorvall) for 15 min. DA, 5-HT, and their major metabolites in the supernatant were analyzed directly by HPLC.
The HPLC system used in this study consisted of a BAS Sample Sentinel Autosampler with refrigerated (4° C.) sample compartment, PM80 solvent delivery system, and a LC-26 on-line degasser. The detector is a LC-4C amperometric controller with a CC-5 cross-flow thin-layer (0.005″) electrochemical cell composed of glassy carbon and silver/silver chloride reference electrode (Bioanlytical Systems, Inc., West Lafayette, Ind.). For routine analysis, the potential and sensitivity were set at 650 mV and 20 nA full scale, respectively. Column temperature was maintained with a Waters Temperature Control Module (Waters, Milford, Mass.). DA and 5-HT were analyzed on a BAS phase II ODS-3, 3 μm, 3.2×100 mm column. […] DOPAL, DOPAC, 5-HIAL and 5-HIAA were analyzed on a Beckman ultrasphere ODS-5, 5μ, 4.6×250 mm column. […] Data were collected and analyzed with a Nelson data collection system (Perkin-Elmer) or a Waters 740 Data Module. The effect of a test compound on 5-HIAL or DOPAL accumulation measured at five different concentrations were averaged and presented as % of control.

The test system of experiment [3] is hamster liver mitochondria (MAO/ALDH pathway, DA as substrate). As to the kind of experiment: Mitochondria-catalyzed DA metabolism (DOPAC formation), hamster liver mitochondria. Format: biochemical. Particulars: isolated hamster liver mitochondria.
Description: as §1
Reactions were initiated by the addition of mitochondria and allowed to proceed in a 37° C. shaking water bath for 30 min. Reactions were terminated by the addition of 0.05 ml each of ice-cold 1 M HClO4 and 10 mM EDTA. […] DA, 5-HT, and their major metabolites in the supernatant were analyzed directly by HPLC.
The HPLC system used in this study consisted of a BAS Sample Sentinel Autosampler with refrigerated (4° C.) sample compartment, PM80 solvent delivery system, and a LC-26 on-line degasser. […] DA and 5-HT were analyzed on a BAS phase II ODS-3, 3 μm, 3.2×100 mm column. […] DOPAL, DOPAC, 5-HIAL and 5-HIAA were analyzed on a Beckman ultrasphere ODS-5, 5μ, 4.6×250 mm column. […] Data were collected and analyzed with a Nelson data collection system (Perkin-Elmer) or a Waters 740 Data Module. The effect of a test compound on 5-HIAL or DOPAL accumulation measured at five different concentrations were averaged and presented as % of control.

Experiment [4] deals with T1, Human Mitochondrial ALDH (ALDH-2) (Homo sapiens, UniProt P05091).
T1 construct: Human, hamster, and rat liver mitochondrial and cytosolic ALDH isozymes were purified as described in Klyosov; from tissue; host or cells: human liver
T1 sequence (P05091 18-517): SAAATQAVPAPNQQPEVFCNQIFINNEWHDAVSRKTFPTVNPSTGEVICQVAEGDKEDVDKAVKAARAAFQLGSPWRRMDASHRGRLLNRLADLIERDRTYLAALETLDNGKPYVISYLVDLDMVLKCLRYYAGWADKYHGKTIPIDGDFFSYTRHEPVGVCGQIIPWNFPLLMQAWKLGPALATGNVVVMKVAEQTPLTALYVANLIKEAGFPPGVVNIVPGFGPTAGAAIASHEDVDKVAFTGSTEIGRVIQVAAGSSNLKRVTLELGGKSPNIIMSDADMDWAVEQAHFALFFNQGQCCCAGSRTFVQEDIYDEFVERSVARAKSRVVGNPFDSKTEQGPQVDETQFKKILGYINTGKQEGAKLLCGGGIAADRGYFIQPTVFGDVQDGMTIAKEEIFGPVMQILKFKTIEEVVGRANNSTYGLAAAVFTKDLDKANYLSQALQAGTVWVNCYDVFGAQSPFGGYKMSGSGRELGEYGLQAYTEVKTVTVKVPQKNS
Conditions: literature; cited from earlier work.

For the next experiment, the system named is rats. Particulars: cited from earlier work.
For experiment [5], the target named is T1, Human Mitochondrial ALDH (ALDH-2). The experiment is described as follows: Inhibition of human mitochondrial ALDH (ALDH-2), competitive and noncompetitive inhibition constants. Format: biochemical. Conditions: for ALDH-2 inhibitory potency, in words: comparison with daidzin, daidzein or another compound.
Description: Human, hamster, and rat liver mitochondrial and cytosolic ALDH isozymes were purified as described in […] . and Keung, W. […] Stock solutions of all water soluble substrates and test compounds were made in Milli-Q water and all others were in methanol. […] The kinetic parameters Km and Vmax for cytosolic ALDHs have been determined from Lineweaver-Burk plots derived from duplicate determinations of initial velocities whereas those for the mitochondrial isozymes were determined from progress kinetic curves in accordance with the teachings of […] .
The test system of another experiment is rat liver mitochondria. The experiment is described as follows: Mitochondria-catalyzed 5-HIAA formation, rat liver mitochondria. Particulars: same concentration range.
Where [6] appears, read: human mitochondrial ALDH, read-out: ALDH-2 Ki (competitive inhibition constant).
Setting [7] is: human mitochondrial ALDH, read-out: ALDH-2 αKi (noncompetitive inhibition constant).

pKi: −log10 of the molar value. Where two headings read alike, the source gives them in different places.

With `O=c1c(-c2ccc(O)cc2)coc2cc(O)ccc12` [Compound 1, daidzein], in experiment [1], the ethanol intake suppression was −30%; the “ETOH Intake Suppression, %” value is 32%; the “suppression of hamster ethanol intake” value was 32%.

`O=c1c(-c2ccc(O)cc2)coc2cc(O[C@@H]3O[C@H](CO)[C@@H](O)[C@H](O)[C@H]3O)ccc12` [Compound 2, daidzin]: the “effect on mitochondria-catalyzed 5-HT depletion” value in experiment [2] (at concentrations that significantly inhibit 5-HIAA formation) is listed as “little or no effect”. Further, the “inhibition of 5-HIAA formation” value in experiment [2] is given as “potently inhibit the formation of 5-hydroxyindole-3-acetic acid (5-HIAA)”. For the same compound, in experiment [3], the “inhibition of DOPAC formation” value is “potently inhibit”. Also, the “inhibition of human mitochondrial aldehyde dehydrogenase (ALDH-2)” value in experiment [4] is “potent and selective inhibitor”. The “suppression of ethanol consumption in rats” value in the experiment on rats is “confirmed”. Further, in experiment [1], the ethanol intake suppression was more than 60%; the “ETOH Intake Suppression, %” value stood at 64%; the “suppression of hamster ethanol intake” value is on record as 64%.

Take `O=C(O)CCCCCOc1ccc2c(=O)c(-c3ccc(O)cc3)coc2c1` [Compound 3, 7-O-[ω-carboxypentyl]-daidzein]: in experiment [1], the “ETOH Intake Suppression, %” value is 70% and the “suppression of hamster ethanol intake” value is given as “about 70%”.

As for `O=C(O)CCCCCCOc1ccc2c(=O)c(-c3ccc(O)cc3)coc2c1` [Compound 4, 7-O-[ω-carboxyhexyl]-daidzein], the pKi in experiment [5] (setting [6]) was 8.05. In addition, the pKi in experiment [5] (setting [7]) is 6.85. Also, in experiment [1], the “ETOH Intake Suppression, %” value is listed as 69% and the “suppression of hamster ethanol intake” value is recorded as “about 70%”.

`O=C(O)CCCCCCCCCOc1ccc2c(=O)c(-c3ccc(O)cc3)coc2c1` [Compound 5]: the results for the pKi in experiment [5] (setting [6]) and in experiment [5] (setting [7]) were 8.40 and 7.30, respectively. Moreover, in experiment [1], the “ETOH Intake Suppression, %” value is 84%.

Take `O=C(O)CCCCCCCCCCOc1ccc2c(=O)c(-c3ccc(O)cc3)coc2c1` [Compound 6]: the “ETOH Intake Suppression, %” value in experiment [1] is reported as 86%.

For `CCOc1ccc2c(=O)c(-c3ccc(O)cc3)coc2c1` [Compound 7], the values for the pKi in experiment [5] (setting [6]) and in experiment [5] (setting [7]) were 7.46 and 6.25, respectively. The ethanol intake suppression result in experiment [1] is reported as “did not suppress ethanol intake”.

Turning to `O=c1c(-c2ccc(O)cc2)coc2cc(OCCC3OCCCO3)ccc12` [Compound 8], in experiment [1], the ethanol intake suppression is reported as −30% and the “ETOH Intake Suppression, %” value is on record as 32%.

Consider `O=c1c(-c2ccc(O)cc2)coc2cc(OCCCCCCBr)ccc12` [Compound 10, 7-O-(6-bromohexyl)-daidzein], for which the pKi in experiment [5] (setting [7]) was 7.15. Further, in experiment [5] (read-out: Ki, human ALDH-2), the pKi is 8.52. In addition, in experiment [1], the ethanol intake suppression result is listed as “only marginally active” and the “ETOH Intake Suppression, %” value worked out at 14%.

As for `CC[N+](CC)(CC)CCCCCCOc1ccc2c(=O)c(-c3ccc(O)cc3)coc2c1` [Compound 11, 7-O-(triethyl-6-aminohexyl)-daidzein], the pKi in experiment [5] (setting [7]) is 7.10; in experiment [5] (read-out: Ki, human ALDH-2), 8.30.

`NCCCCCCOc1ccc2c(=O)c(-c3ccc(O)cc3)coc2c1` [Compound 13, 7-O-(6-aminohexyl)-daidzein]: the pKi in experiment [5] (setting [6]) is 7.44; in experiment [5] (setting [7]), 6.22. Further, the ethanol intake suppression result in experiment [1] was “did not suppress ethanol intake”.

`CC(Br)CCCCC(=O)Oc1ccc2c(=O)c(-c3ccc(O)cc3)coc2c1` (centres unmarked) [Compound 14, 7-O-daidzein-6-bromoheptanoate]: the “ALDH-2 inhibitory potency, in words” value in experiment [5] is given as “less potent than 7-O-(6-bromohexyl)-daidzein”. The pKi in experiment [5] (setting [6]) was 7.70; in experiment [5] (setting [7]), 6.59.

Turning to `CC[N+](CC)(CC)CCOc1ccc2c(=O)c(-c3ccc(O)cc3)coc2c1` [Compound 15, 7-O-(triethyl-6-aminoethyl)-daidzein], the pKi is 7.10 in experiment [5] (setting [6]) and 5.80 in experiment [5] (setting [7]).

In the case of `O=C(CCl)Oc1ccc2c(=O)c(-c3ccc(O)cc3)coc2c1` [Compound 16, 7-O-daidzein-2-chloroacetate], the “ALDH-2 inhibitory potency, in words” value in experiment [5] was “less potent inhibitors relative to daidzin”. Besides, the pKi is 5.97 in experiment [5] (setting [6]) and 4.97 in experiment [5] (setting [7]).

As to `O=C(CBr)Oc1ccc2c(=O)c(-c3ccc(O)cc3)coc2c1` [Compound 17, 7-O-daidzein-2-bromoacetate], the “ALDH-2 inhibitory potency, in words” value in experiment [5] was “less potent inhibitors relative to daidzin”. The pKi is 5.74 in experiment [5] (setting [6]) and 4.70 in experiment [5] (setting [7]).

On to `CN(C)CCC(=O)Oc1ccc2c(=O)c(-c3ccc(O)cc3)coc2c1` [Compound 18, 7-O-daidzein-3-dimethylaminopropionate], for which the “ALDH-2 inhibitory potency, in words” value in experiment [5] is reported as “less potent inhibitors relative to daidzin”. Moreover, the pKi was 5.76 in experiment [5] (setting [6]) and 4.62 in experiment [5] (setting [7]).

For `O=c1c(-c2ccc(O)cc2)coc2c([C@@H]3O[C@H](CO)[C@@H](O)[C@H](O)[C@H]3O)c(O)ccc12` [Compound 20, Puerarine], the “inhibition of 5-HIAA formation” value in experiment [2] is reported as “does not inhibit 5-HIAA formation”. In the experiment on rats, the “suppression of ethanol consumption in rats” value was “suppresses ethanol consumption in rats”. Further, in the experiment with rat liver mitochondria, the “inhibition of 5-HIAA formation” value is on record as “does inhibit 5-HIAA formation”. Moreover, in experiment [1], the “ETOH Intake Suppression, %” value was 0% and the “suppression of hamster ethanol intake” value is on record as “do not exert any significant effect on ethanol intake”. Moreover, the “suppression of ethanol consumption in hamsters, in words” value in experiment [1] (hamsters) is on record as “not hamsters”.

As to `O=c1cc(-c2ccccc2)oc2cc(O)cc(O)c12` [Compound 21, Chrysin, reference compound], the values for the pKi in experiment [5] (setting [6]) and in experiment [5] (setting [7]) were 4.46 and 3.96, respectively. For the same compound, the “ETOH Intake Suppression, %” value in experiment [1] turned out to be 0%.

As for `O=c1cc(-c2ccccc2)oc2c(O)c(O)ccc12` [Compound 22, 7,8-Dihydroxyflavone], the pKi in experiment [5] (setting [6]) was 4.46. In addition, the pKi in experiment [5] (setting [7]) is 3.57. Also, in experiment [1], the ethanol intake suppression result is on record as “did not suppress ethanol intake”; the “ETOH Intake Suppression, %” value is on record as 0%; the “suppression of hamster ethanol intake” value is reported as “do not exert any significant effect on ethanol intake”.

In the case of `C=CCOc1ccc2c(=O)c(-c3ccc(O)cc3)coc2c1` [allyl], the ethanol intake suppression entry in experiment [1] is reported as “did not suppress ethanol intake”.

For the compound `O=c1c(-c2ccc(O)cc2)coc2cc(O)cc(O)c12` [genestein], in experiment [1], the ethanol intake suppression result is on record as “did not suppress ethanol intake”.
